Where “and” joins values, the source holds several entries; their conditions need not be identical. Equal values may be shown once. Bridge positions count the residues as written; N and C are the ends. Ends that are not written are not given here.
How the values were obtained:
P14 peptides = assay: IgG anti-peptide ELISA after immunisation of mice with P14 peptide-BSA conjugates; type: in vivo; settings: 25 μg conjugate IM with AS2 adjuvant on days 0, 14, 28, day 14 post III; for IgG anti-peptide responses (midpoint titre), individual mice: one value per mouse
Experimental: To evaluate the immunogenicity of the conjugates produced in Example 1, 10 mice per group were immunised intramuscularly (IM) on days 0, 14 and 28 with 25 μg of conjugate mixed with AS2 adjuvant (oil/water emulsion, 3D-MPL, QS21). The serologic response for the P14 peptides was analysed by ELISA on days 28 and 42 (14 post III).

P15 peptides = assay: Anti-peptide antibody response after immunisation of mice with cyclic P15-BSA conjugates; type: in vivo; settings: 10 mice per group, 25 μg conjugate IM with AS2 adjuvant on days 0, 14, 28; 14 days post III
Experimental: (§1) The P15 peptide conjugates produced in Example 1 were also used to immunise 10 mice per group,intramuscularly (IM) on days 0, 14 and 28 with 25 μg of conjugate mixed with AS2 adjuvant (oil/water emulsion, 3D-MPL, QS21). Very homogenous responses were obtained with all cyclic P15 peptides.

IgE = assay: Anti-IgE antibody response after immunisation of mice with cyclic P15-BSA conjugates, by comparison with mAb 11; type: in vivo; settings: mAb11 equivalents, 25 μg conjugate IM with AS2 adjuvant on days 0, 14, 28, 14 days post III
Experimental: as §1

human basophils [1] = assay: Human basophil blocking assay: inhibition of Lol p I triggered histamine release; type: cell-based; settings: human basophils from allergic donors, triggered with allergen (Lol p I)
Description: The degree of inhibition of histamine release can be calculated using the formula:
% inhibition=1−(histamine release from test sample treated cells*)×100(histamine release from antigen stimulated cells*)
Values corrected for spontaneous release.

human basophils [2] = system: human basophils

With “Ac-CWPGSRDRRCGSK-NH2 (disulfide 1-10 (inferred)) [P14I]” the “IgG anti-peptide responses (midpoint titre), Average” value (shortened to “IgG anti-peptide responses … Average”) (P14 peptides) was 48146, the “IgG anti-peptide responses (midpoint titre), geomean” value (from here on “IgG anti-peptide responses … geomean”) (P14 peptides) was 45336 and the “IgG anti-peptide responses (midpoint titre), individual mice” value (P14 peptides) was 85882 and 28989 and 39268 and 39460 and 57276 and 50834 and 54664 and 62263 and 36621 and 26202.
In the case of “Ac-CPEWPGSRDRCGSK-NH2 (disulfide 1-11 (inferred)) [P14f]”, the “IgG anti-peptide responses … Average” value (P14 peptides) is reported as 77521, the “IgG anti-peptide responses … geomean” value (P14 peptides) is reported as 73541 and the “IgG anti-peptide responses (midpoint titre), individual mice” value (P14 peptides) is reported as 67086 and 101502 and 36031 and 74838 and 56496 and 51304 and 92885 and 92868 and 113041 and 89155.
For Ac-CLEDGQVMDVDLCPREAAEGDK-NH2 [P15d], the “anti-peptide (midpoint titre), average” value (P15 peptides) was 35118, the “anti-peptide (midpoint titre), geomean” value (P15 peptides) was 32801 and the “anti-IgE (μg/ml or mAB11 equivalent), average” value (“anti-IgE … average” for short) (IgE) was 174 µg/mL. The “anti-IgE (μg/ml or mAB11 equivalent), geomean” value (“anti-IgE … geomean” for short) (IgE) was 111 µg/mL, the “histamine release blocking activity of the induced antiserum” value (“histamine release blocking activity” for short) (human basophils [1]) was “inhibited histamine release” and the “anaphylactogenicity of the induced antiserum” value (from here on “anaphylactogenicity”) (human basophils [2]) was “without the antiserum being anaphylactogenic”.
In the case of “ACPEWPGSRDRCTLAG-NH2 (disulfide 2-12 (inferred)) [P14e]”, the “IgG anti-peptide responses … Average” value (P14 peptides) is reported as 3200, the “IgG anti-peptide responses … geomean” value (P14 peptides) is reported as 3051 and the “IgG anti-peptide responses (midpoint titre), individual mice” value (P14 peptides) is reported as 3151 and 2345 and 3224 and 3051 and 2873 and 4647 and 1461 and 4227 and 3821.
In the case of “Ac-CLEDGQVMDVDLCGGSSGGK-NH2 (disulfide 1-13 (inferred)) [P15e]”, the “anti-peptide (midpoint titre), average” value (P15 peptides) is reported as 57432, the “anti-peptide (midpoint titre), geomean” value (P15 peptides) is reported as 55207 and the “anti-IgE … average” value (IgE) is reported as 129 µg/mL. For the same substance, the “anti-IgE … geomean” value (IgE) was 113 µg/mL, the “histamine release blocking activity” value (human basophils [1]) was “inhibited histamine release” and the “anaphylactogenicity” value (human basophils [2]) was “without the antiserum being anaphylactogenic”.
With “Ac-CLEDGQVMDCGSK-NH2 (disulfide 1-10 (inferred)) [P15b, 325 conjugated to BSA]” the “anti-peptide (midpoint titre), average” value (P15 peptides) was 11169, the “anti-peptide (midpoint titre), geomean” value (P15 peptides) was 8385 and the “anti-IgE … average” value (IgE) was 70 µg/mL. The “anti-IgE … geomean” value (IgE) was 35 µg/mL.
For “Ac-CLEDGQVMDVDLCGSK-NH2 (disulfide 1-13 (inferred)) [P15c]”, the “anti-peptide (midpoint titre), average” value (P15 peptides) was 66452, the “anti-peptide (midpoint titre), geomean” value (P15 peptides) was 65685 and the “anti-IgE … average” value (IgE) was 200 µg/mL. For the same substance, the “anti-IgE … geomean” value (IgE) was 189 µg/mL, the “histamine release blocking activity” value (human basophils [1]) was “inhibited histamine release” and the “anaphylactogenicity” value (human basophils [2]) was “without the antiserum being anaphylactogenic”.

Reference: patent US20040030106A1, “Novel compounds and process” (priority 2000, published 2004)
